Data: patent US20100068204A1, “4-ARYLOXYQUINOLIN-2(1H)-ONES AS MTOR KINASE AND PI3 KINASE INHIBITORS, FOR USE AS ANTI-CANCER AGENTS” (Wyeth, priority 2008, published 2010)

Experiments:
[1] = system: LNCap prostate tumor cells; assay: In vitro cell growth assay (MTS), LNCap; format: cell-based, human; conditions: Homo sapiens, LNCaP, 72 h, three days after drug treatment
Experimental: (§1) Cell lines used were human adenocarcinoma (LoVo), […], prostate (LNCap), breast (MDA468, MCF7), colon (HCT116), renal (HTB44 A498), and ovarian (OVCAR3) tumor cell lines. The tumor cells were plated in 96-well culture plates at approximately 3000 cells per well. One day following plating, various concentrations of inhibitors in DMSO were added to cells (final DMSO concentration in cell assays was 0.25%). Three days after drug treatment, viable cell densities were determined by cell mediated metabolic conversion of the dye MTS, a well-established indicator of cell proliferation in vitro. Cell growth assays were performed using kits purchased from Promega Corporation (Madison, Wis.), following the protocol provided by the vendor. Measuring absorbance at 490 nm generated MTS assay results. Compound effect on cell proliferation was assessed relative to untreated control cell growth.

[2] = system: MDA468 breast tumor cells; assay: In vitro cell growth assay (MTS), MDA468; format: cell-based, human; conditions: Homo sapiens, 72 h, three days after drug treatment
Experimental: as §1

PI3Kα = PI3Kα (Homo sapiens, UniProt P42336); assay: PI3Kα fluorescence polarization assay; format: biochemical; conditions: 20 μM PIP2, 25 μM ATP
Sequence of PI3Kα (P42336 whole entry, species assumed): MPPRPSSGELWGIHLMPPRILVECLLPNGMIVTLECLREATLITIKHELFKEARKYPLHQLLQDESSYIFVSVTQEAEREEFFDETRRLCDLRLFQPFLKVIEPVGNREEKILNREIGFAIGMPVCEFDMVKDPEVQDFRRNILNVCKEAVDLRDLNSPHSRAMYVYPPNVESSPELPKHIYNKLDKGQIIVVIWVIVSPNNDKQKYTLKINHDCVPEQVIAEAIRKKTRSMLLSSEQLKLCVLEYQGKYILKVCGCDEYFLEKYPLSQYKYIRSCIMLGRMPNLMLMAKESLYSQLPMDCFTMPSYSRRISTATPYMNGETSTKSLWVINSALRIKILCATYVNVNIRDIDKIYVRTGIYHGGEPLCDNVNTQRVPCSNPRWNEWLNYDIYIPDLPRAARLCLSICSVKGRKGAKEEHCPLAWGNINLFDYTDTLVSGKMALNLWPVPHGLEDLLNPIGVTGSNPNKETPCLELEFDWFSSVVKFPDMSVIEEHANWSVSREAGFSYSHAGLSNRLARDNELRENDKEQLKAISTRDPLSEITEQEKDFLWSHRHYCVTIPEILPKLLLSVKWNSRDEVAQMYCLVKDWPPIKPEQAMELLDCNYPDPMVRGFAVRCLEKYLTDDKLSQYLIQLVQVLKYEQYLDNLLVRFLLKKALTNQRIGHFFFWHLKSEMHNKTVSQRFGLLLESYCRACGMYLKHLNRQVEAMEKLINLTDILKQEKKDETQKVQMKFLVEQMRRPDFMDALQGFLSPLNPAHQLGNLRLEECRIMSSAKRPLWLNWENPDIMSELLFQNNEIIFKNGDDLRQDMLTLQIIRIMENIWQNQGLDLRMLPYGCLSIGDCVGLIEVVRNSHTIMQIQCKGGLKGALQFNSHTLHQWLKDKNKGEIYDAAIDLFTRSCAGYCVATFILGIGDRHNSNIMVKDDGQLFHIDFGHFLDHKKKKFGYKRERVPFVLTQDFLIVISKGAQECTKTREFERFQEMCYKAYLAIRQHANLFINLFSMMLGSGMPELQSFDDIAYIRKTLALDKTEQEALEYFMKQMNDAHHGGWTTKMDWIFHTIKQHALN
Sequence of PI3Kα (P27986 whole entry partner, species assumed): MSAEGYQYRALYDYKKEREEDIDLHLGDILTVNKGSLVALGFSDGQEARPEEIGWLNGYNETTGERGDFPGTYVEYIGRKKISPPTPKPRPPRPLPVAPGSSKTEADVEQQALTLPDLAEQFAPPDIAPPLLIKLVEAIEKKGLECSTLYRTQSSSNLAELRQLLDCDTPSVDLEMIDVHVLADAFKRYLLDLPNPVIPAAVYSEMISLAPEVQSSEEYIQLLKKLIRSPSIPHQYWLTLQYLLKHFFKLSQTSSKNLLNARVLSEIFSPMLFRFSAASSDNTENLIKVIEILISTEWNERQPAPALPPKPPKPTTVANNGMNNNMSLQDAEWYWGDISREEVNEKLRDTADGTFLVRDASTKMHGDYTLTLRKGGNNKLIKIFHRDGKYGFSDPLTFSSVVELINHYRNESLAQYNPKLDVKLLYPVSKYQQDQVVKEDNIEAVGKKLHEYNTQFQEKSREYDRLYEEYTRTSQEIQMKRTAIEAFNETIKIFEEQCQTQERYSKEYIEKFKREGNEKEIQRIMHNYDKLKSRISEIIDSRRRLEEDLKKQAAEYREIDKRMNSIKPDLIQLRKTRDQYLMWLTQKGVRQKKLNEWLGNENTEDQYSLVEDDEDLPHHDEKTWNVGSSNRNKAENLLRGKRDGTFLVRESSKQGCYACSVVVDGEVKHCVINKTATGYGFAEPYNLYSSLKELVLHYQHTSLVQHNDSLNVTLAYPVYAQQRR
Experimental: The reaction buffer was 20 mM HEPES pH7.5, 2 mM MgCl2, 0.05% CHAPS, and 0.01% βME (added fresh). The substrate solution was 40 μM PIP2 (diC8, Echelon, Salt Lake City Utah cat #P-4508, 1 mM in water) and 50 μM ATP in the reaction buffer. Nunc 384-well black polypropylene fluorescent plates were used for PI3K assays. The assay is run by putting 9.5 μl of freshly diluted enzyme in the reaction buffer per well, adding 0.5 μl of diluted drug or DMSO, and mixing. Then 10 μl of the substrate solution is added to each well to start the reaction. A final concentration of 20 μM PIP2 and 25 μM ATP in the reaction was used. Reactions were allowed to proceed for 30-60 minutes at room temperature. After 30-60 minutes, 20 μl of a solution of 10 nM TAMRA detector (Red detector probe-Echelon) and 2.5 uM of GST-murine GRP (1.5 mg/ml in 17% glycerol) was added per well to stop the reaction. The resulting solution was mixed well and allowed to stand for 90-110 minutes before reading plate. Assay Plates were read on Perkin-Elmer Envision plate readers with appropriate filters for Tamra [BODIPY-TMRI(1,3,4,5)P4]. Data obtained were used to calculate enzymatic activity and enzyme inhibition by inhibitor compounds. It is important to keep Red probe solutions dark. This procedure is adapted from Echelon Biosciences Inc procedure for their PI3-Kinase fluorescence polarization activity Assay kit Product number K-1100.

human TOR (FLAG-TOR) = human TOR (FLAG-TOR) (Homo sapiens, UniProt P42345); assay: mTOR enzyme assay (DELFIA format, purified enzyme); format: biochemical; conditions: 800 ng/ml FLAG-TOR, 100 μM ATP, 1.25 μM His6-S6K; read-out: mTOR Kinase IC50

| SMILES | IC50 [1] | IC50 [2] | IC50 (PI3Kα) | IC50 (human TOR (FLAG-TOR)) |
| --- | --- | --- | --- | --- |
| O=c1cc(Oc2cccc([N+](=O)[O-])c2)c2ccccc2[nH]1 | > 60 µM | > 60 µM | > 10 µM | 2.25 µM |
| O=c1cc(Oc2ccc3c(c2)OCO3)c2ccccc2[nH]1 | > 60 µM | > 60 µM | > 10 µM | 1.5 µM |
| O=c1cc(Oc2cccc(N3CCOCC3)c2)c2ccccc2[nH]1 | 9 µM | 60 µM | > 10 µM | 0.43 µM |
| O=c1cc(Oc2cccc(-c3ccco3)c2)c2ccccc2[nH]1 | > 60 µM | 0.7 µM | > 10 µM | 0.4 µM |
| O=c1cc(Oc2cccc(-c3ccc4[nH]ccc4c3)c2)c2ccccc2[nH]1 | 12 µM | 23 µM | > 10 µM | 0.47 µM |
| NS(=O)(=O)c1ccc(-c2cccc(Oc3cc(=O)[nH]c4ccccc34)c2)cc1 | > 60 µM | 60 µM | > 10 µM | 0.26 µM |
| O=c1cc(Oc2cccc(-c3cccc(NCc4cccnc4)c3)c2)c2ccccc2[nH]1 | 8 µM | 28 µM | > 10 µM | 0.51 µM |
| O=c1cc(Oc2cccc(-c3ccc(NCCCl)cc3)c2)c2ccccc2[nH]1 | 6.2 µM | 11 µM | > 10 µM | 0.44 µM |
| CN1CCN(CCNc2ccc(-c3cccc(Oc4cc(=O)[nH]c5ccccc45)c3)cc2)CC1 | 12 µM | 23 µM | > 10 µM | 0.14 µM |
| O=c1cc(Oc2cccc(-c3cccs3)c2)c2ccccc2[nH]1 | > 60 µM | 3.8 µM | 2.69 µM | > 20 µM |
| CS(=O)(=O)Nc1cccc(-c2cccc(Oc3cc(=O)[nH]c4ccccc34)c2)c1 | 6.5 µM | 18 µM | 3.55 µM | 0.58 µM |
| O=c1cc(Oc2cccc(-c3ccnc(N4CCNCC4)c3)c2)c2ccccc2[nH]1 | 9 µM | 8.5 µM | 15 µM | 0.55 µM |
| COc1ncccc1CNc1cccc(Oc2cc(=O)[nH]c3ccccc23)c1 | 8.5 µM | 60 µM | 6.74 µM | 0.4 µM |
| COc1cnc(OC)c(CNc2cccc(Oc3cc(=O)[nH]c4ccccc34)c2)c1 | 9 µM | 15 µM | 1.93 µM | 0.51 µM |
| O=c1cc(Oc2cccc(NCc3ccccc3N3CCOCC3)c2)c2ccccc2[nH]1 | 9 µM | 24 µM | 5.62 µM | 0.33 µM |
| O=c1cc(Oc2cccc(NC3CCN(Cc4ccccn4)CC3)c2)c2ccccc2[nH]1 | 6.5 µM | 19 µM | > 10 µM | 0.19 µM |
| O=c1cc(Oc2cccc(-c3ccc(NC4CCN(Cc5ccncc5)CC4)cc3)c2)c2ccccc2[nH]1 | 6.7 µM | 13 µM | > 10 µM | 0.12 µM |
| O=c1cc(Oc2cccc(-c3ccc(Cl)nc3)c2)c2ccccc2[nH]1 | > 60 µM | > 60 µM | > 10 µM | > 20 µM |
| O=c1cc(Oc2cccc(NCc3cnc4ccccc4c3)c2)c2ccccc2[nH]1 | > 60 µM | 60 µM | > 10 µM | 0.06 µM |
| CC(C)(C)OC(=O)n1ccc2cc(CNc3cccc(Oc4cc(=O)[nH]c5ccccc45)c3)cnc21 | 11.5 µM | 60 µM | 11.8 µM | 4.5 µM |
| CN(C)c1ccc(CNc2cccc(Oc3cc(=O)[nH]c4ccccc34)c2)cn1 | > 60 µM | > 60 µM | 4.55 µM | 0.16 µM |
| CC(C)(C)CNc1ccc(CNc2cccc(Oc3cc(=O)[nH]c4ccccc34)c2)cn1 | 7 µM | 12 µM | 2.09 µM | 0.35 µM |
| Nc1ccncc1CNc1cccc(Oc2cc(=O)[nH]c3ccccc23)c1 | 8 µM | 11.5 µM | > 10 µM | 0.15 µM |

Further compounds by falling IC50 [1], results first:

| IC50 [1] | IC50 [2] | IC50 (PI3Kα) | IC50 (human TOR (FLAG-TOR)) | SMILES |
| --- | --- | --- | --- | --- |
| 6.4 µM | 31 µM | > 10 µM | 0.15 µM | O=c1cc(Oc2cccc(NC3CCN(Cc4ccncc4)CC3)c2)c2ccccc2[nH]1 |
| 6 µM | 12 µM | > 10 µM | 0.32 µM | CN1CCC(Nc2cccc(Oc3cc(=O)[nH]c4ccccc34)c2)CC1 |
| 5.8 µM | 12 µM | 3.49 µM | 0.15 µM | O=c1cc(Oc2cccc(NCc3ccccn3)c2)c2ccccc2[nH]1 |
| 5.8 µM | 26 µM | > 10 µM | 0.27 µM | CS(=O)(=O)Nc1ccc(-c2cccc(Oc3cc(=O)[nH]c4ccccc34)c2)cc1 |
| 5.2 µM | 11 µM | > 10 µM | 0.11 µM | O=c1cc(Oc2cccc(-c3ccc(NC4CCN(Cc5ccccn5)CC4)cc3)c2)c2ccccc2[nH]1 |
| 5 µM | 10 µM | > 10 µM | 0.15 µM | O=c1cc(Oc2cccc(NCc3ccncc3)c2)c2ccccc2[nH]1 |
| 5 µM | 12 µM | > 10 µM | 0.31 µM | CN(C)c1ncccc1CNc1cccc(Oc2cc(=O)[nH]c3ccccc23)c1 |
| 4.9 µM | 13 µM | 3.42 µM | 0.12 µM | O=c1cc(Oc2cccc(NCc3cnc4[nH]ccc4c3)c2)c2ccccc2[nH]1 |
| 4.8 µM | 7 µM | > 10 µM | 0.15 µM | O=c1cc(Oc2cccc(-c3ccc(N4CCNCC4)nc3)c2)c2ccccc2[nH]1 |
| 4.8 µM | 8 µM | 5 µM | 0.18 µM | CN(C)CCNc1ccc(-c2cccc(Oc3cc(=O)[nH]c4ccccc34)c2)cc1 |
| 4.1 µM | 12 µM | 4.07 µM | 0.31 µM | COc1ccc(CNc2cccc(Oc3cc(=O)[nH]c4ccccc34)c2)cn1 |
| 4 µM | 8.8 µM | 4.79 µM | 0.17 µM | Cn1cc(CNc2cccc(Oc3cc(=O)[nH]c4ccccc34)c2)cn1 |
| 4 µM | 8 µM | 12 µM | 0.14 µM | CN(C)C/C=C/C(=O)Nc1cccc(-c2cccc(Oc3cc(=O)[nH]c4ccccc34)c2)c1 |
| 4 µM | 11.5 µM | > 10 µM | 0.12 µM | O=c1cc(Oc2cccc(NCCc3cccnc3)c2)c2ccccc2[nH]1 |
| 4 µM | 8 µM | 7.16 µM | 0.11 µM | Nc1ccc(CNc2cccc(Oc3cc(=O)[nH]c4ccccc34)c2)cn1 |
| 3.9 µM | 10 µM | 8 µM | 0.31 µM | CCN1CCCC(Nc2ccc(-c3cccc(Oc4cc(=O)[nH]c5ccccc45)c3)cc2)C1 (centres unmarked) |
| 3.3 µM | 11 µM | 3.58 µM | 0.19 µM | CC(Nc1cccc(Oc2cc(=O)[nH]c3ccccc23)c1)c1cccnc1 (centres unmarked) |
| 3.1 µM | 11 µM | 7.52 µM | 0.14 µM | CC(Nc1cccc(Oc2cc(=O)[nH]c3ccccc23)c1)c1ccncc1 (centres unmarked) |
| 3.05 µM | 4.5 µM | > 10 µM | 0.18 µM | O=c1cc(Oc2cccc(-c3ccc(NCCN4CCCC4)cc3)c2)c2ccccc2[nH]1 |
| 3 µM | 3 µM | 4.62 µM | 0.23 µM | Cn1cc(CN(Cc2ccn(C)n2)c2cccc(Oc3cc(=O)[nH]c4ccccc34)c2)cn1 |
| 2.8 µM | 6.8 µM | > 10 µM | 0.09 µM | CNc1ncccc1CNc1cccc(Oc2cc(=O)[nH]c3ccccc23)c1 |
| 2.3 µM | 3.8 µM | > 10 µM | 0.09 µM | O=c1cc(Oc2cccc(-c3ccc(NC4CCNCC4)cc3)c2)c2ccccc2[nH]1 |
| 2.3 µM | 4.2 µM | 7.38 µM | 0.03 µM | N#C[BH2-][n+]1cccc(CNc2cccc(Oc3cc(=O)[nH]c4ccccc34)c2)c1 |
| 1.3 µM | 2.8 µM | 4.05 µM | 0.04 µM | CC(C)(C)C(=O)Nc1ncccc1CNc1cccc(Oc2cc(=O)[nH]c3ccccc23)c1 |
